Non-standard residues stand in square brackets, D forms with d. Residues, ends and D or L forms follow the SMILES beside them.
System: influenza virus (A/Puerto Rico/8/34, PR8) expressing green fluorescent protein (PR8-GFP)
Type: cell-based

CC(C)C[C@@H](NC(=O)[C@@H](CC(C)C)NC(=O)[C@@H](CC(N)=O)NC(=O)[C@H](NC(=O)[C@@H](Cc1ccccc1)NC(=O)CNC(=O)[C@@H](Cc1ccc(O)cc1)NC(=O)CNC(=O)[C@@H](CCCNC(=N)N)NC(=O)[C@@H](CCCCN)NC(=O)[C@@H](CCCCN)NC(=O)[C@@H](CCCNC(=N)N)NC(=O)[C@@H](CCCNC(=N)N)NC(=O)[C@@H](CCC(N)=O)NC(=O)[C@@H](CCCNC(=N)N)NC(=O)[C@@H](CCCNC(=N)N)NC(=O)[C@H](N)CCCNC(=N)N)C(C)C)C(=O)N[C@H](Cc1ccccc1)C(=O)N[C@H](CC(C)C)C(=O)N[C@@H](C(=O)N[C@@H](C(=O)N[C@H](CCC(=O)O)C(=O)O)C(C)C)C(C)C [TAT-Kα2] (H-[dR][dR][dR][dQ][dR][dR][dK][dK][dR]G[dY]G[dF][dV][dN][dL][dL][dF][dL][dV][dV][dE]-OH)
inhibition of PR8-GFP virus infection: significantly inhibited

Source: article PMC5501782 (Scientific Reports, 2017)
